Assay results reported in doi:10.64898/2025.12.04.692314v1 (biorxiv, 2025).

Key:
Type in all cases: binding
AtACO2 = AtACO2 (Arabidopsis thaliana, UniProt Q41931); test: intrinsic tryptophan fluorescence quenching; details: 5 µM enzyme, Ni(II), 50 mM Tris pH 7.5, 28 °C; negative control (non-binder)
PhACO1 [1] = target: PhACO1 (Petunia x hybrida, UniProt Q08506); test: isothermal titration calorimetry
PhACO1 [2] = target: PhACO1 (Petunia x hybrida, UniProt Q08506, R244A); test: isothermal titration calorimetry
Sequence of PhACO1 (Petunia x hybrida, UniProt Q08506, R244A) (Q08506 whole entry R244A): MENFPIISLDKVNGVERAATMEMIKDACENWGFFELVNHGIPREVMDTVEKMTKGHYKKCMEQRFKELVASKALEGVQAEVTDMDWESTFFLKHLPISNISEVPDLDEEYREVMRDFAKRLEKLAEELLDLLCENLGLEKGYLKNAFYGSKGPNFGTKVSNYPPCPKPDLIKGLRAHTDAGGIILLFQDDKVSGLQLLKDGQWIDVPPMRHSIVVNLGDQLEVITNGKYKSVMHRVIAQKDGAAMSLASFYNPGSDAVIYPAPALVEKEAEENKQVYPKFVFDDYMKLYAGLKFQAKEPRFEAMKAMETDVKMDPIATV

Sequence of AtACO2 (Q41931 whole entry): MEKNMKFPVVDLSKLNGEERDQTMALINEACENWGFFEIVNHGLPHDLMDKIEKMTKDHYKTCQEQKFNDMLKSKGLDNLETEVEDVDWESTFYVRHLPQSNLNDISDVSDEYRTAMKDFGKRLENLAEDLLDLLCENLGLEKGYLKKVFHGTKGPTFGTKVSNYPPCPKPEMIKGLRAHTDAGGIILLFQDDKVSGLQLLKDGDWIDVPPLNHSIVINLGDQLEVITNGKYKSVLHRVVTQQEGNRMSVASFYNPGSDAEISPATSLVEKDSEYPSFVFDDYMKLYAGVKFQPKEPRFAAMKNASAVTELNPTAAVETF
Sequence of PhACO1 (Petunia x hybrida, UniProt Q08506) (Q08506 whole entry): as the sequence (Q08506 whole entry R244A) above, with A244R counted along it

Row | intrinsic tryptophan fluorescence quenching (AtACO2) | Compound | Kd (PhACO1 [1]) [µM] | Kd (PhACO1 [2]) [µM]
1 | benzoic acid did not quench fluorescence | O=C(O)c1ccccc1 [benzoic acid] |  | 
2 |  | O=C(O)c1cnccn1 [POA] | 69.5 | 104
